Measurements published in US9561228B2 (Celgene Avilomics Research, Inc., priority 2013, dated 2017).

Tests used:
[1] = system: ERK1/2 phosphorylation of p90RSK in HCT116 cells; experiment: Detection of total and phospho-RSK by MSD ELISA (HCT116); format: cell-based; details: Homo sapiens, HCT-116, read-out: ERK1/ERK2 PRSK HCT116 EC50
Method in brief: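 ERK1/2 activity read in cells as p90RSK phosphorylation: lysates from HCT116 cells given compound for 2 h at 37° C were captured on MSD plates. Detection used a pSer380 RSK or a total RSK antibody with SulfoTag secondaries.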

[2] = system: ERK1/2 phosphorylation of p90RSK in A375 cells; experiment: Detection of total and phosphor-RSK by MSD ELISA (A375); format: cell-based; details: Homo sapiens, A-375, read-out: ERK1/ERK2 PRSK A375 EC50
Method in brief: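 Electrochemiluminescent MSD ELISA: common RSK capture antibody, with pRSK Ser380 or total RSK detection antibodies plus SulfoTag secondaries. Samples were lysates of A375 cells exposed to compound for 2 h at 37° C after overnight culture in 0.1% FBS DMEM.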

| EC50 [1] | EC50 [2] | Structure (SMILES) |
| --- | --- | --- |
| < 100 nM | < 100 nM | C=CC(=O)Nc1cc(CN2CCN(C(=O)CO)CC2)ccc1Nc1nc(Nc2cc(OC)ncc2C)ncc1C(F)(F)F [Compound I-385, N-(5-((4-(2-hydroxyacetyl)piperazin-1-yl)methyl)-2-((2-((2-methoxy-5-methylpyridin-4-yl)amino)-5-(trifluoromethyl)pyrimidin-4-yl)amino)phenyl)acrylamide] |
| 101 to 500 nM | 101 to 500 nM | C=CC(=O)Nc1cc(C)ccc1Nc1nc(Nc2nc(OC)ncc2C#N)ncc1C(F)(F)F [Compound I-346, N-(2-((2-((5-cyano-2-methoxypyrimidin-4-yl)amino)-5-(trifluoromethyl)pyrimidin-4-yl)amino)-5-methylphenyl)acrylamide] |
| 501 to 999 nM | 501 to 999 nM | C=CC(=O)Nc1cc(O[C@@H](C)C(=O)N2CCN(C(C)=O)CC2)ccc1Nc1nc(Nc2cc(OC)ncc2C)ncc1C(F)(F)F [Compound I-425, (S)—N-(5-((1-(4-acetylpiperazin-1-yl)-1-oxopropan-2-yl)oxy)-2-((2-((2-methoxy-5-methylpyridin-4-yl)amino)-5-(trifluoromethyl)pyrimidin-4-yl)amino)phenyl)acrylamide] |
| 101 to 500 nM | > 1000 nM | C=CC(=O)Nc1cc(C)ccc1Nc1nc(NC2CCC(=O)NC2)ncc1C(F)(F)F (racemic) [Compound I-368, Rac-N-(5-methyl-2-((2-((6-oxopiperidin-3-yl)amino)-5-(trifluoromethyl)pyrimidin-4-yl)amino)phenyl)acrylamide] |
| 101 to 500 nM | 501 to 999 nM | C=CC(=O)Nc1cc(C)ccc1Nc1nc(Nc2cc(C(=O)NC)nn2C)ncc1C(F)(F)F [Compound I-424, 5-((4-((2-acrylamido-4-methylphenyl)amino)-5-(trifluoromethyl)pyrimidin-2-yl)amino)-N,1-dimethyl-1H-pyrazole-3-carboxamide] |
| 501 to 999 nM | > 1000 nM | C=CC(=O)Nc1cc(CN2CCN(C(C)=O)CC2)ccc1Nc1nc(Nc2nc(OC)ncc2C)ncc1C(F)(F)F [Compound I-382, N-(5-((4-acetylpiperazin-1-yl)methyl)-2-((2-((2-methoxy-5-methylpyrimidin-4-yl)amino)-5-(trifluoromethyl)pyrimidin-4-yl)amino)phenyl)acrylamide] |
| < 100 nM | < 100 nM | C=CC(=O)Nc1cc(C)c(F)cc1Nc1nc(Nc2nc(OC)ncc2C)ncc1C(F)(F)F [Compound I-377, N-(4-fluoro-2-((2-((2-methoxy-5-methylpyrimidin-4-yl)amino)-5-(trifluoromethyl)pyrimidin-4-yl)amino)-5-methylphenyl)acrylamide] |
| 101 to 500 nM | > 1000 nM | C=CC(=O)Nc1cc(CN2CCN(C(=O)c3ccccn3)CC2)ccc1Nc1nc(Nc2nc(OC)ncc2C)ncc1C(F)(F)F [Compound I-391, N-(2-((2-((2-methoxy-5-methylpyrimidin-4-yl)amino)-5-(trifluoromethyl)pyrimidin-4-yl)amino)-5-((4-picolinoylpiperazin-1-yl)methyl)phenyl)acrylamide] |
| > 1000 nM | > 1000 nM | C=CC(=O)Nc1cc(C)ccc1Nc1nc(Nc2cc(C(N)=O)nn2C)ncc1C(F)(F)F [Compound I-423, 5-((4-((2-acrylamido-4-methylphenyl)amino)-5-(trifluoromethyl)pyrimidin-2-yl)amino)-1-methyl-1H-pyrazole-3-carboxamide] |
| > 1000 nM | > 1000 nM | C=CC(=O)Nc1cc(CN2CCN(C(=O)c3cccnc3)CC2)ccc1Nc1nc(Nc2nc(OC)ncc2C)ncc1C(F)(F)F [Compound I-392, N-(2-((2-((2-methoxy-5-methylpyrimidin-4-yl)amino)-5-(trifluoromethyl)pyrimidin-4-yl)amino)-5-((4-nicotinoylpiperazin-1-yl)methyl)phenyl)acrylamide] |
| < 100 nM | < 100 nM | C=CC(=O)Nc1cc(C)ccc1Nc1nc(Nc2cc(OCCO)ncc2C)ncc1C(F)(F)F [Compound I-376, N-(2-((2-((2-(2-hydroxyethoxy)-5-methylpyridin-4-yl)amino)-5-(trifluoromethyl)pyrimidin-4-yl)amino)-5-methylphenyl)acrylamide] |
| > 1000 nM | > 1000 nM | C=CC(=O)Nc1cc(C)c(F)cc1Nc1nc(Nc2cc(OC)ncc2C)ncc1C(F)(F)F [Compound I-366, N-(4-fluoro-2-((2-((2-methoxy-5-methylpyridin-4-yl)amino)-5-(trifluoromethyl)pyrimidin-4-yl)amino)-5-methylphenyl)acrylamide] |

| Structure (SMILES) | EC50 [1] | EC50 [2] |
| --- | --- | --- |
| C=CC(=O)Nc1cc(C)ccc1Nc1nc(Nc2cc(OC)nc(N3CCN(C(C)=O)CC3)c2)ncc1C(F)(F)F [Compound I-93, N-(2-((2-((2-(4-Acetylpiperazin-1-yl)-6-methoxypyridin-4-yl)amino)-5-(trifluoromethyl)pyrimidin-4-yl)amino)-5-methylphenyl)acrylamide] | < 100 nM | < 100 nM |
| C=CC(=O)Nc1cc(C)ccc1Nc1nc(Nc2cc(NCCOC)nc(OC)c2)ncc1C(F)(F)F [Compound I-294, N-(2-((2-((2-methoxy-6-((2-methoxyethyl)amino)pyridin-4-yl)amino)-5-(trifluoromethyl)pyrimidin-4-yl)amino)-5-methylphenyl)acrylamide] | < 100 nM | < 100 nM |
